Results taken from patent US9150559B2, “Anti-proliferative compounds and methods for using the same” (The Board of Trustees of the Leland Stanford Junior …, priority 2011, dated 2015).

Columns and labels:
[1] = Solubility / formulation property; type: physicochemical
[2] = system: AML cell lines induced by MLL-AF10 or MLL-AF9; experiment: Effects on murine leukemia cell lines established from AMLs induced by MLL fusion oncogenes; type: cell-based
Method: Compound 1 was also tested for its effects on murine leukemia cell lines established from AMLs induced via retroviral transduction of MLL fusion oncogenes (Somervaille, T. C. & Cleary, M. L. Identification and characterization of leukemia stem cells in murine MLL-AF9 acute myeloid leukemia. Cancer Cell 10, 257-268, (2006)).

[3] = system: human cancer cell lines derived from 9 different tissues; experiment: NCI 60-cell line screen, growth inhibition (sulforhodamine B); type: cell-based; settings: colon and prostate cancer cell lines; 48 hours incubation
Method: FIG. 1. Mean graph representing the sensitivity of 60 human cell lines to compound 1. The vertical line at GI50 (the drug concentration resulting in a 50% growth reduction) represents the mean response to 10 μM compound 1.
FIG. 2. Growth response of human cell lines grown for 2 days in the presence of increasing concentrations of compound 1.
The compounds have broad specificity and affect human cell lines of multiple lineages. The growth inhibitory properties were analyzed in human cancer cell lines derived from 9 different tissues in the NCI 60-cell line screen. To perform this assay, cells were plated in 96-well plates and incubated overnight. After 24 hours, compounds were added to the wells and plates. Two plates of each cell line were set aside and fixed in TCA to measure the quantity of cells present at the time drug was added (time 0). The remaining plates were incubated for 48 hours. The assay was terminated by addition of TCA, and the cells were quantified by staining the cellular proteins with sulforhadamine B. The growth inhibition (GI50) was calculated by dividing the difference between treated cells at the beginning and end of the assay by the difference between untreated cells at the beginning and end of the assay.

[4] = system: normal murine bone marrow progenitors; experiment: Therapeutic window: human B-ALL cell lines versus normal bone marrow progenitors; type: cell-based, human and murine
[5] = system: MV411-lucifease cell line; experiment: In vitro sensitivity of MV411-luciferase cell line; type: cell-based, human
[6] = Preliminary toxicity studies, daily injection over 10 days; type: in vivo
Method: Preliminary toxicity studies were performed. Mice were injected (vehicle alone, 8 mg/kg, or 16 mg/kg) daily over a 10 day-period with a 2-day holiday after the first 4 days.

[7] = Additional toxicity study, subcutaneous twice a day for 10 days; type: in vivo; settings: mice
Method: An additional toxicity study was performed by injecting mice subcutaneously twice a day with 20 mg/kg compound formulated in 5% DMSO/20% gamma-cyclodextrin or 22.5 mg/kg compound formulated in 10% DMSO/40% captisol. for 10 consecutive days. Animals were also dosed with gamma-cyclodextrin or captisol vehicle alone.

[8] = system: primary human patient ALL samples; experiment: Inhibition of primary human patient ALL samples; type: cell-based
Method: (§1) The majority of human leukemia cell lines with MLL translocations (3/4) were inhibited more potently than non-MLL cell lines (FIG. 3); although most non-MLL cells lines (4/6) were still sensitive to the compounds. […] Compound 1 also has inhibitory effects on primary human patient ALL samples with an IC50 of 4-20 nM.

[9] = Initial pharmacokinetic studies in mice; type: in vivo
Method: Initial pharmacokinetic studies were conducted in mice to inform design of pre-clinical efficacy studies.

[10] = system: human and mouse leukemia cell lines; experiment: Apoptosis (annexin V and propidium iodide staining) after a single treatment; type: cell-based
Text: Compound 1 induced death of human and mouse leukemia cell lines by apoptosis (annexin V and propidium iodide staining) within 3 days of a single treatment, indicating a cytotoxic as opposed to cytostatic effect.

[11] = system: human leukemia cell lines with MLL translocations; experiment: Viability of human leukemia (B-ALL) cell lines, cell titer blue assay; type: cell-based; settings: 72 h, viability 3 days post-treatment, read-out: IC50 (half maximal inhibitory concentration)
Method: (§2) FIG. 3. Inhibition of human B-ALL cell lines treated with compound. Cell lines were treated with increasing concentrations of compound and assessed for viability 3 days post-treatment by cell titer blue assay.
as §1

[12] = system: cells lines with other translocations (E2A-PBX, E2A-HLF, TEL-PDGFRB); experiment: as above; type: cell-based; settings: read-out: IC50 (half maximal inhibitory concentration)
Method: as §2, §1

[13] = system: MLL leukemia cell lines (RS411-MLL-AF4; HB-MLL-ENL) and control cells (REH-TEL-AML); experiment: Cell-based high-throughput phenotypic screen, cell viability by fluorescent indicator dye; parameters: species or system human; settings: 2 days after addition of compounds
Method: Cell viability was assessed using a fluorescent indicator dye at 2 days after addition of compounds.

Cc1ccc(S(=O)(=O)Cc2nc(-c3ccc(C(=O)NCc4cccnc4)cc3)oc2C)cc1 [Compound 1]
solubility [1]: sparingly soluble
sensitivity of murine AML cell lines [2]: highly sensitive
growth inhibitory activity (GI50) in NCI 60-cell line screen [3]: particularly high activity
sensitivity of human B-ALL cells versus normal murine bone marrow progenitor cells [4]: differential sensitivity
IC50 ([5]; Homo sapiens, MV411-luciferase cell line): 0.01 µM
IC100 ([5]; MV411-luciferase cell line, printed with (±20 nM)): 25 nM
effect of pre-incubation with FBS on potency ([5]; pre-incubation of compound with FBS prior to cell treatment in vitro): no effect on potency
tolerability (distress, body weight reduction) ([6]; mice, 8 or 16 mg/kg daily over 10 days with 2-day holiday): All but one animal tolerated dosing
nephrotoxicity ([6]; mice, captisol formulation, also seen in animals treated with vehicle only): Mild nephrotoxicity
cardiotoxicity ([6]; mice, high-dose group (16 mg/kg)): Severe cardiotoxicity in one animal and mild cardiotoxicity in another animal
MTD or lethal dose ([6]; mouse, in vivo): not achieved
nephrotoxicity ([7]; gamma-cyclodextrin formulation, 20 mg/kg s.c. twice a day): No nephrotoxicity was observed
toxic side effects (histological tissue morphology, serological liver and kidney function tests) ([7]; s.c. twice a day, 20 mg/kg (5% DMSO/20% gamma-cyclodextrin) or 22.5 mg/kg (10% DMSO/40% captisol)): No toxic side effects were observed
IC50 [8]: 0.004 to 0.02 µM
compound remaining in plasma ([9]; at 24 hours): almost no compound remained
half-life ([9]; mouse, plasma, 16 mg/kg i.p. or s.c. (10% DMSO/40% captisol), 25 mg/kg i.p., s.c., oral (5% DMSO/20% gamma-cyclodextrin)): ~1.5 h
absorption into plasma ([9]; single intra-peritoneal or subcutaneous injection 16 mg/kg): quickly absorbed in plasma
kinetics of cell death: completion ([10]; after treatment): 48 h
kinetics of cell death: initiation ([10]; after treatment): 24 h
time to death by apoptosis ([10]; single treatment, annexin V and propidium iodide staining): ≤ 3 days
IC50 [11]: 0.001 to 0.01 µM
IC50 [12]: 0.01 to 0.02 µM

CC(=O)[C@]1(O)Cc2c(O)c3c(c(O)c2[C@@H](O[C@H]2C[C@H](N)[C@H](O)[C@H](C)O2)C1)C(=O)c1ccccc1C3=O [idarubicin, reference compound]
sensitivity of human B-ALL cells versus normal murine bone marrow progenitor cells [4]: overlapping potency
cell viability in high-throughput screen [13]: reduced viability of all cell lines
